{"source": "the supplement of paper PMC10307832", "experiment_in_all_cases": "relative viability (nuclei count vs DMSO), 5 days (fraction); higher = more cells survive", "key": {"VX-702 + Palbociclib": {"compound": "NC(=O)c1ccc(N(C(N)=O)c2c(F)cccc2F)nc1-c1ccc(F)cc1F [VX-702] + CC(=O)c1c(C)c2cnc(Nc3ccc(N4CCNCC4)cn3)nc2n(C2CCCC2)c1=O [Palbociclib] (partner 0.5 µM)", "summary_of_the_method": "(§1)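 Lung cancer cell lines were pin-tool dosed in 1536-well plates on the day after seeding, with either a lone drug or a fixed anchor-drug dose plus five library-drug doses (not always all listed) in √10 steps. Nuclei were counted on 4× images after 5 days. Relative viability is the ratio of treated-well to vehicle-well nuclei counts, with each value a median of duplicate plates.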"}, "Dabrafenib + AZD7762": {"compound": "CC(C)(C)c1nc(-c2cccc(NS(=O)(=O)c3c(F)cccc3F)c2F)c(-c2ccnc(N)n2)s1 [Dabrafenib] + NC(=O)Nc1cc(-c2cccc(F)c2)sc1C(=O)N[C@H]1CCCNC1 [AZD7762] (partner 0.2 µM)", "summary_of_the_method": "as §1"}, "VX-702 + Luminespib": {"compound": "NC(=O)c1ccc(N(C(N)=O)c2c(F)cccc2F)nc1-c1ccc(F)cc1F [VX-702] + CCNC(=O)c1noc(-c2cc(C(C)C)c(O)cc2O)c1-c1ccc(CN2CCOCC2)cc1 [Luminespib] (partner 0.01 µM)", "summary_of_the_method": "as §1"}, "Dabrafenib + Olaparib": {"compound": "CC(C)(C)c1nc(-c2cccc(NS(=O)(=O)c3c(F)cccc3F)c2F)c(-c2ccnc(N)n2)s1 [Dabrafenib] + O=C(c1cc(Cc2n[nH]c(=O)c3ccccc23)ccc1F)N1CCN(C(=O)C2CC2)CC1 [Olaparib] (partner 8 µM)", "summary_of_the_method": "as §1"}, "VX-702 + Dasatinib": {"compound": "NC(=O)c1ccc(N(C(N)=O)c2c(F)cccc2F)nc1-c1ccc(F)cc1F [VX-702] + Cc1nc(Nc2ncc(C(=O)Nc3c(C)cccc3Cl)s2)cc(N2CCN(CCO)CC2)n1 [Dasatinib] (partner 0.075 µM)", "summary_of_the_method": "as §1"}}, "data": [{"cell line": "SW 900", "values": [{"measurement": "relative viability", "setting": "VX-702 + Palbociclib; first compound 0.02 µM", "value": 0.577}, {"measurement": "relative viability", "setting": "VX-702 + Palbociclib; first compound 0.2 µM", "value": 0.566}, {"measurement": "relative viability", "setting": "VX-702 + Palbociclib; first compound 0.6325 µM", "value": 0.575}, {"measurement": "relative viability", "setting": "VX-702 + Palbociclib; first compound 2 µM", "value": 0.539}, {"measurement": "relative viability", "setting": "Dabrafenib + AZD7762; first compound 0.009487 µM", "value": 0.578}, {"measurement": "relative viability", "setting": "Dabrafenib + AZD7762; first compound 0.09487 µM", "value": 0.845}, {"measurement": "relative viability", "setting": "Dabrafenib + AZD7762; first compound 0.3 µM", "value": 0.875}, {"measurement": "relative viability", "setting": "VX-702 + Luminespib; first compound 0.02 µM", "value": 0.202}, {"measurement": "relative viability", "setting": "VX-702 + Luminespib; first compound 0.2 µM", "value": 0.188}, {"measurement": "relative viability", "setting": "VX-702 + Luminespib; first compound 0.6325 µM", "value": 0.15}, {"measurement": "relative viability", "setting": "VX-702 + Luminespib; first compound 2 µM", "value": 0.16}, {"measurement": "relative viability", "setting": "Dabrafenib + Olaparib; first compound 0.009487 µM", "value": 0.93}, {"measurement": "relative viability", "setting": "Dabrafenib + Olaparib; first compound 0.09487 µM", "value": 0.775}, {"measurement": "relative viability", "setting": "Dabrafenib + Olaparib; first compound 0.3 µM", "value": 0.984}, {"measurement": "relative viability", "setting": "VX-702 + Dasatinib; first compound 0.02 µM", "value": 0.541}, {"measurement": "relative viability", "setting": "VX-702 + Dasatinib; first compound 0.2 µM", "value": 0.664}, {"measurement": "relative viability", "setting": "VX-702 + Dasatinib; first compound 0.6325 µM", "value": 0.56}, {"measurement": "relative viability", "setting": "VX-702 + Dasatinib; first compound 2 µM", "value": 0.818}]}]}
